# Results: US20210308196A1, “COMPOSITIONS AND METHODS TO PROMOTE HOST DEFENSE AND STIMULATE, EXPAND, AND/OR RESET T CELL REPERTOIRES” (EVOLVE BIOSYSTEMS, INC., priority 2018, published 2021)
# Legend:
# [1] = system: fecal bacteria; assay: Fecal microscopy (Gram-stained light microscopy, SEM); assay type: in vivo, human
# Method: Fecal Microscopy. All samples were fixed by adding equal amount of 5% glutaraldehyde in 0.2 M cacodylate buffer (final concentration 2.5% glutaraldehyde in 0.1 M cacodylate buffer) for 1-2 h before being processed for Gram-stained light microscopy and scanning electron microscopy (SEM). For light microscopy, conventional Gram-stained samples on slides were imaged under an EVOS Auto-FL system using a 60× lens and 2.7× optical zoom, under the same setting of the color camera. Five random fields of images were collected from each sample slide. For SEM, since the samples were previously frozen before fixation, the osmium post-fixation, and critical-point dry procedures were not performed. The fixed samples were dehydrated through an ethanol series and placed on membrane filters. The samples were mounted onto the SEM stubs, aired overnight, and then vacuum-oven dried at 50° C. for >2 h before sputter-coating with a thin layer of chromium using Denton Desk V sputter. Images were collected under various magnifications to capture bacterial morphology using a Hitachi […] field-emission SEM. Microscopy confirmed the high levels of Bifidobacterium in samples from the treatment group.
# [2] = Safety and tolerability of B. infantis EVC001 supplementation in healthy term nursing infants; assay type: in vivo, human; settings: healthy term breastfed infants
# Method: This trial was designed to show the effect of probiotic supplementation with Bifidobacterium longum subsp. Infantis (B. infantis EVC001) in healthy, term, nursing infants compared to an unsupplemented group. A dry composition of lactose and activated Bifidobacterium longum subsp. infantis was prepared starting with the cultivation of a purified isolate (Strain EVC001 ATCC Accession No. PTA-125180, Evolve Biosystems Inc., Davis, Calif., isolated from a human infant fecal sample) in the presence of BMO according to International Patent Application No. PCT/US2015/057226. […] This concentrated powder was then diluted by blending with infant formula grade lactose to an activity level of about 30 Billion CFU/g. This composition then was loaded into individual sachets at about 0.625 g/sachet and provided to breast-fed infants starting on or about day 7 of life and then provided on a daily basis for the subsequent 21 days.
# This was a 60-day study starting with infants' date of birth as Day 1. […]
# Infant fecal samples were collected throughout the 60-day trial. […] Safety and tolerability were determined from maternal reports of infants' feeding, stooling frequency, and consistency (using a modified Amsterdam infant stool scale—watery, soft, formed, hard; Bekkali et al. 2009), as well as GI symptoms and health outcomes. […]
# [3] = Microbial short chain fatty acids by gas chromatography; assay type: in vivo, human; settings: treatment group
# Text: Microbial production of short chain fatty acids (SCFA): SCFA can modulate intestinal inflammation by regulating epithelial barrier function. Microbial short chain fatty acids (SCFA) are extracted by methods previously described and analyzed by gas chromatography HD and found to be elevated in the treatment group
# [4] = system: peanut extract allergy; assay: Reversal of murine peanut allergy; assay type: in vivo, mouse; settings: previously sensitized animals, compared to control mice
# Method: Germ-free pups are weaned 3 weeks after birth and put on a polysaccharide-free diet. Mice are gavaged with a dysbiotic microbiome of Example 3 at Day 1. Mice receive intragastric gavage of peanut extract on day 1 and day 7 at 5 mg/mouse and then 25 mg/mouse at week 5 with 10 μg of Cholera toxin. Elicitation of reaction is performed at eight to ten weeks using intragastric gavage of 10 mg/mouse food antigen (e.g., peanut extract) with vehicle (PBS). At 10 weeks, mice of the test group are fed B. infantis, while control mice receive vehicle gavage only. All mice have access ad labium to LNnT-infused drinking water for a period of 21 days. The mice are re-challenged with the food antigen via intragastric gavage of 10 mg/mouse peanut extract with vehicle (PBS). Anaphylaxis symptoms are evaluated, and then mice are necropsied. Plasma samples are collected for evaluation of histamine and IgE concentrations. White blood cells are isolated for PBMC characterization and evaluation of regulatory T cell population expansion using flow cytometry specific for CD4, CD25, Foxp3, Helios, Neuropilin, CD8, CD44, CD62L, IFNgamma, IL-17.
# [5] = Nutritional intervention study on autoimmune/allergic disease (T1D) in breastfed infants; assay type: in vivo, human; settings: colonized infants
# Text: Administration of activated B. infantis to breastfed neonates and infants leads consistently to high levels of B. infantis in the stool.
# This is a randomized, double-blinded, placebo-controlled, parallel group study design (See FIG. 15). After the parent/guardian(s) sign the informed consent, infants will be screened for all the eligibility criteria, and if found eligible will be enrolled in the study. Eligible infants must first undergo an HLA genotyping from a cord blood sample collected at birth. Based on their HLA genotype they will be either placed in group 1 (low risk by HLA genotyping) and group 2 (high risk by HLA genotype). Each group will be randomly assigned to the placebo or treatment groups. […] Parent/guardian(s) of the infants will be instructed to maintain breastfeeding (at least 1 feed/day) for at least 6 months, and up to 12 months if possible during the treatment period. Following the 12-month treatment period, individuals will be followed at regular intervals with study visits and assessments. Individuals will be followed until a sufficient number of events (seroconversion to multiple (2) islet autoantibodies) are accumulated to achieve the planned power for the final analysis. […]
substance,measurement,setting,value
Bifidobacterium longum subsp. infantis EVC001 [B. infantis EVC001],Bifidobacterium in fecal samples by microscopy,[1]; samples from the treatment group,high levels
same,Gram staining of fecal smears,"[1]; three fecal samples, Day 40",overwhelmingly contained Gram-positive bacteria
same,Bacterial morphology in fecal samples,"[1]; three fecal samples, Day 40, multiple fields of view",uniform morphology of rod-shaped bacteria
same,Adverse events versus unsupplemented group,[2]; 60-day study,not different between groups
same,Tolerability,[2]; at least 1.8×10^10 cfu once daily for 21 days from Day 7,well-tolerated
same,Microbial short chain fatty acids (SCFA),[3],elevated
same,Inflammatory responses to the food antigen,[4],reduces
same,Rates of childhood-onset autoimmune and allergic disease,[5],decreases
same,TReg cell numbers,[5],increases
